Data: ChEMBL document CHEMBL1201862, “PubChem BioAssay data set” (2004)
One block for each compound: values may come before it. The source made the active and inactive calls.

Assays:
[1] = system: HEK293; assay: cells; conditions: Homo sapiens
[2] = system: Streptococcus; assay: Group A Streptococcus viability loss, dose response, counter-screen for streptokinase expression inhibitor project, luminescence, BacTiterGlo (AID 1915); format: functional, organism-based;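 note: potency for reduction of bacterial viability or growth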
[3] = molecular target: T1, Nucleotide-binding oligomerization domain-containing protein 1 (Homo sapiens, UniProt Q9Y239); assay: NOD1 signaling inhibitors, SAR follow-up, revised (AID 2333); format: functional
T1 sequence (Q9Y239 whole entry): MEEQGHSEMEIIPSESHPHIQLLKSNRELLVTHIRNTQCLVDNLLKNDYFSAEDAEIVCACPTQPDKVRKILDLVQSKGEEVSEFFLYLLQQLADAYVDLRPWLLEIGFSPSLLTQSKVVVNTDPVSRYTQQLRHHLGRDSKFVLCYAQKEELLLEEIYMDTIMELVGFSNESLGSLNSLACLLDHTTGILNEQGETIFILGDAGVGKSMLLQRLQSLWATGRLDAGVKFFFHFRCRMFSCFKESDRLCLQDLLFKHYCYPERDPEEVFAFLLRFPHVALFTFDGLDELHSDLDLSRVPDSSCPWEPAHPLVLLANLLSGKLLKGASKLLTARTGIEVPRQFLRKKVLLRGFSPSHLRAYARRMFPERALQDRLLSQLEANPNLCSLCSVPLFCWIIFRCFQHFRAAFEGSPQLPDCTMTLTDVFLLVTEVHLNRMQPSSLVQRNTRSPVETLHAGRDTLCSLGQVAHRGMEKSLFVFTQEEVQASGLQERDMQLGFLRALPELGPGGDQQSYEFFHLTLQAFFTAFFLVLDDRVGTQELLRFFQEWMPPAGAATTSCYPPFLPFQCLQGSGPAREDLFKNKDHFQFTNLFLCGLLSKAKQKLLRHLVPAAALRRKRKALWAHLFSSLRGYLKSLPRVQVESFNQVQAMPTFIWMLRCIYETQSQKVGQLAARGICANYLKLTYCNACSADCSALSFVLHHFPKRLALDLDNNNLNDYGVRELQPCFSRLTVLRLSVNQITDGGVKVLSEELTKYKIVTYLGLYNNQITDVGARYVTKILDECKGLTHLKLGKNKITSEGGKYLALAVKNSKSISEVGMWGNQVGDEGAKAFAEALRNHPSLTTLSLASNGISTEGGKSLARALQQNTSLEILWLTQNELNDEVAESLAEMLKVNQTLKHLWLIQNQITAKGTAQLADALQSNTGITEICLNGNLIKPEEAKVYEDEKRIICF

[4] = molecular target: T2, Nucleotide-binding oligomerization domain-containing protein 2 (Homo sapiens, UniProt Q9HC29); assay: NOD2 signaling inhibitors, cell-based, luminescence, uHTS, HEK293 (AID 1566); format: functional
T2 sequence (Q9HC29 whole entry, the tested form may be a part): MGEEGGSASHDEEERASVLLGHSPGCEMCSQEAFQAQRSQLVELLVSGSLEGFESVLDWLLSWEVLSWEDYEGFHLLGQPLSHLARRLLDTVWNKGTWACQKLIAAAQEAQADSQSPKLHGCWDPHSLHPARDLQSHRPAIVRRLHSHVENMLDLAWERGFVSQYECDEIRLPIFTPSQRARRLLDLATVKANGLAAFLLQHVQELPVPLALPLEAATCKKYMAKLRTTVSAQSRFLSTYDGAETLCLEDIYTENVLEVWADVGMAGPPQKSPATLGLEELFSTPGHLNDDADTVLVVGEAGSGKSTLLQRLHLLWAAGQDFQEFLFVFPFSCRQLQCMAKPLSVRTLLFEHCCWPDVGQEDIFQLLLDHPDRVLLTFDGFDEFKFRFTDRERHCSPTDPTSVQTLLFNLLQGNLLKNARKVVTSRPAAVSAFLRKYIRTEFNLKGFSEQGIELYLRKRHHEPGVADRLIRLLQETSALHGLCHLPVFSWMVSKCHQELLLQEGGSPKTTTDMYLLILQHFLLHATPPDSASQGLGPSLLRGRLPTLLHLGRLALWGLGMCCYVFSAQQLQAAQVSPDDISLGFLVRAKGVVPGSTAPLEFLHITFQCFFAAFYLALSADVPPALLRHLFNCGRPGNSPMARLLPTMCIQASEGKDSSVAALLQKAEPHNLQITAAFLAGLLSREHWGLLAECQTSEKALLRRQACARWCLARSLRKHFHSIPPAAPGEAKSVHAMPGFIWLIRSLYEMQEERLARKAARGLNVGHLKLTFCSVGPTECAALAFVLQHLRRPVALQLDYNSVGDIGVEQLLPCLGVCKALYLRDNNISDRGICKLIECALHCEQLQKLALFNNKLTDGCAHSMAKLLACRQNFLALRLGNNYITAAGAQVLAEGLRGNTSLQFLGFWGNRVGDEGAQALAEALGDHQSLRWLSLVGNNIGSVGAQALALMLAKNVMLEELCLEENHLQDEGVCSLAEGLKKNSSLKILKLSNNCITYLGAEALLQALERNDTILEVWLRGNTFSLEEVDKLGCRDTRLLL

[5] = molecular target: Tumor necrosis factor (Homo sapiens, UniProt P01375); assay: TNFa-triggered NF-kB activation inhibitors, SAR follow-up, cell-based, revised (AID 2337); format: functional
Sequence of Tumor necrosis factor (P01375 whole entry): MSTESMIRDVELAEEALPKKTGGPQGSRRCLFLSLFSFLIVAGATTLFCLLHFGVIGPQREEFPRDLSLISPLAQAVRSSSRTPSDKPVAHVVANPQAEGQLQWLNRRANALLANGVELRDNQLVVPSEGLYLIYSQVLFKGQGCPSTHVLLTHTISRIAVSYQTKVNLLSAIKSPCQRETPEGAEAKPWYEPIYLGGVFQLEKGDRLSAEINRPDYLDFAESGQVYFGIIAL

[6] = system: HEK293; assay: cells; format: functional, cell-based; conditions: Homo sapiens
[7] = system: HEK293; assay: cells; format: functional, cell-based; conditions: Homo sapiens; remark: listed apart in the source
[8] = system: HEK293; assay: cells; format: functional, cell-based; conditions: Homo sapiens; remark: listed apart in the source
[9] = system: HEK293; assay: NOD1 signaling inhibitors, primary screen, cell-based, luminescence, uHTS (AID 1578); format: functional; conditions: Homo sapiens
[10] = system: Streptococcus sp. 'group A'; assay: growth inhibition of control SK(-) GAS strain, dose response, counter-screen for streptokinase expression inhibitor project, luminescence, kanamycin, BacTiterGlo, confirmation (AID 1900); format: functional, organism-based
[11] = molecular target: T2, Nucleotide-binding oligomerization domain-containing protein 2; assay: PubChem AID 2334; format: functional
[12] = system: HEK293; assay: NOD2 signaling inhibitors in MDP-stimulated cells, cell-based, uHTS, luminescence (AID 2001); format: functional; conditions: Homo sapiens
[13] = molecular target: Large T antigen (Simian virus 40, UniProt P03070); format: functional, Betapolyomavirus macacae;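 note: Confirmatory-stage PubChem screen for compounds that inhibit SV40 T antigen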
[14] = molecular target: T3, Voltage-gated N-type calcium channel alpha-1B subunit/Amyloid beta A4 precursor protein-binding family A member 1 (Homo sapiens, UniProt Q00975+Q02410); format: protein assay
T3 sequence (Q00975 whole entry): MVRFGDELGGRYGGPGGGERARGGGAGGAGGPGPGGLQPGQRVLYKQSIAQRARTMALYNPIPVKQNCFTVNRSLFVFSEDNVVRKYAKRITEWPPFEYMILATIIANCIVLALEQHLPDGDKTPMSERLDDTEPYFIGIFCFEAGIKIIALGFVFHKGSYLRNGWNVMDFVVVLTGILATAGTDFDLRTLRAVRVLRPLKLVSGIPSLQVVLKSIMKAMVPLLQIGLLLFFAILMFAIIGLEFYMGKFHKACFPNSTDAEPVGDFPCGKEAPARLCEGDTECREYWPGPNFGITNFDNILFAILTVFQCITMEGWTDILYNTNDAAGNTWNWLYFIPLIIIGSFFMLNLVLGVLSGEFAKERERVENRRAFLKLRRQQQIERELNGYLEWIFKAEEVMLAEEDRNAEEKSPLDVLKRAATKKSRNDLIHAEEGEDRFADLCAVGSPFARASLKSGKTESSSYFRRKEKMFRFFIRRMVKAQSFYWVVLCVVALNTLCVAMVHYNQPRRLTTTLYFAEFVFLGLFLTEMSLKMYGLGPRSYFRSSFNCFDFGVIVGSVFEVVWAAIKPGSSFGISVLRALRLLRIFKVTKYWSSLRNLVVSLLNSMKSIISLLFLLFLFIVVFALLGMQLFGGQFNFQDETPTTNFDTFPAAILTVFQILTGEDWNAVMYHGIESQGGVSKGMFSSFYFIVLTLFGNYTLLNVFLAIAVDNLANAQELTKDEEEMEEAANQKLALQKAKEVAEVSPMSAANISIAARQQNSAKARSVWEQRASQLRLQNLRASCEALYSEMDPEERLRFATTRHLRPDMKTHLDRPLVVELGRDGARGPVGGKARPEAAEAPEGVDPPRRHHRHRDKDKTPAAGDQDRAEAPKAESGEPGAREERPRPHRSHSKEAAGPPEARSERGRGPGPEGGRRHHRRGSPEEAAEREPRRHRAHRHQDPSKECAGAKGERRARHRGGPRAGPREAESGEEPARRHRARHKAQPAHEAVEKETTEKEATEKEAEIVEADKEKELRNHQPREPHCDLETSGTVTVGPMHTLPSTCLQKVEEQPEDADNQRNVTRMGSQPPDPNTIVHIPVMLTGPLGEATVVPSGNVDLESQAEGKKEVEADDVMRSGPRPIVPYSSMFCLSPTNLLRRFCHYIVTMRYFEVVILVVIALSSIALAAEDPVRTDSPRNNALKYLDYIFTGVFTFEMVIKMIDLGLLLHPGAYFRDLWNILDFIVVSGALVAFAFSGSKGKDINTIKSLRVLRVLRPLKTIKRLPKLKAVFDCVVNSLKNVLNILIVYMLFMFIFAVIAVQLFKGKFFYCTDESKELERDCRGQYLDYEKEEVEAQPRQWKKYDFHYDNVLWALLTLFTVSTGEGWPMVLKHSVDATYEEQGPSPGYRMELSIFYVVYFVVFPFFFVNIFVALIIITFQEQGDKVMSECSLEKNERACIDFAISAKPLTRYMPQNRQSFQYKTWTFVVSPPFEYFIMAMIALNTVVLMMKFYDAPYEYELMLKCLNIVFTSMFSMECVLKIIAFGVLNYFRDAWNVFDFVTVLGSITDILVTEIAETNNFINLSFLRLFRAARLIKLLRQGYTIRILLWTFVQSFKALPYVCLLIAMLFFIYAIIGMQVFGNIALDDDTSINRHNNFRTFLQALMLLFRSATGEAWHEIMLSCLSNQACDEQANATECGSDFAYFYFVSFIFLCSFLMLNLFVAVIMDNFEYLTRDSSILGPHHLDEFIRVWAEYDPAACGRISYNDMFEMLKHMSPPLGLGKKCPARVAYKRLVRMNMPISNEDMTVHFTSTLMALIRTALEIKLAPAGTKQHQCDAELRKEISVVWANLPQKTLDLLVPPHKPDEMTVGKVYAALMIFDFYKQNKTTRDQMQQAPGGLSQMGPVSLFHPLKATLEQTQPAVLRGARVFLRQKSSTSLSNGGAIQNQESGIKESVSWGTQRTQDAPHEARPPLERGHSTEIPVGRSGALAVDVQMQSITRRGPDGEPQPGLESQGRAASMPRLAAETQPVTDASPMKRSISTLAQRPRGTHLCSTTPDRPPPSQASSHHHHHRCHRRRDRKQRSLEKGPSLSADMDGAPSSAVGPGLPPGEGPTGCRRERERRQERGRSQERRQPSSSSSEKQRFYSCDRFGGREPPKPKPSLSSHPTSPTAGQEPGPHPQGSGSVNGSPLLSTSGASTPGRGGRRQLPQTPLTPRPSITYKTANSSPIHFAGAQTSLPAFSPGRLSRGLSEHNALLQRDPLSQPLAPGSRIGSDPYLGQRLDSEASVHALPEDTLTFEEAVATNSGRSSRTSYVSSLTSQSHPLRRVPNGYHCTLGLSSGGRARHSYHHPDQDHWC
T3 sequence (Q02410 whole entry): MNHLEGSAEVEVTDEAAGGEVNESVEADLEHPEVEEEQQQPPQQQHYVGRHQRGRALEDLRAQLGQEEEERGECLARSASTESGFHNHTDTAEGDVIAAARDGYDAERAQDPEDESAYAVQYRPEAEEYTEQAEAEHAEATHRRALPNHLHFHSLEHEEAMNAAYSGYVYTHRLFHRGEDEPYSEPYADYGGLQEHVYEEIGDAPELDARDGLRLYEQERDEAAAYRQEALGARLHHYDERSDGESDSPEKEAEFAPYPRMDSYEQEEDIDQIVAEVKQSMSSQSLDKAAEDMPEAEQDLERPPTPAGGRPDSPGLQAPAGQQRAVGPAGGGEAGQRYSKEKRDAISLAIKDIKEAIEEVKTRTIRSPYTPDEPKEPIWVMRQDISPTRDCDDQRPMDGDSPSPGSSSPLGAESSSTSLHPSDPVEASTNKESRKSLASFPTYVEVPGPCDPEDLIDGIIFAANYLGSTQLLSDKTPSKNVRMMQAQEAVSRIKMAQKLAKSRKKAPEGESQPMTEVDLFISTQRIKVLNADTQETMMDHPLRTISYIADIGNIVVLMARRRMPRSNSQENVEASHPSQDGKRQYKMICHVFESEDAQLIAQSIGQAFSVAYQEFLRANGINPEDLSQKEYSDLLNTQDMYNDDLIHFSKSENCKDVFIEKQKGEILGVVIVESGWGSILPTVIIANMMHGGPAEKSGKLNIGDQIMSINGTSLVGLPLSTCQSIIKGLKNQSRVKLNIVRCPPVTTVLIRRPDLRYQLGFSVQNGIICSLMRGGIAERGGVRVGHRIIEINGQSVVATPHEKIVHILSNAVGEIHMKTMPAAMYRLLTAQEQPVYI

[15] = molecular target: Induced myeloid leukemia cell differentiation protein Mcl-1 (Homo sapiens, UniProt Q07820); format: functional
[16] = molecular target: T3, Voltage-gated N-type calcium channel alpha-1B subunit/Amyloid beta A4 precursor protein-binding family A member 1; format: protein assay; remark: listed apart in the source
[17] = molecular target: Dual specificity protein phosphatase 3 (Homo sapiens, UniProt P51452); assay: SAR VHR1 Fluorescent Assay for In Vitro dose response studies Set 2. [Related pubchem assays (depositor defined):AID1654, AID1661, AID1878]; format: functional
Sequence of Dual specificity protein phosphatase 3 (P51452 whole entry): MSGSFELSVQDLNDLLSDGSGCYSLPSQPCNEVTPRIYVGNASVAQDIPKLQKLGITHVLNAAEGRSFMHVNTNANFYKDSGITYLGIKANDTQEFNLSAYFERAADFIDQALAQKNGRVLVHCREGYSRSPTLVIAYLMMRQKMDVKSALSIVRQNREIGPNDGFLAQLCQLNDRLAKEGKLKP

[18] = molecular target: T4, Tyrosine-protein phosphatase non-receptor type 7 (Homo sapiens, UniProt P35236); assay: SAR analysis of chemical inhibitors of HePTP using a Fluorescent assay - Set 2. [Related pubchem assays (depositor defined):AID1059, AID1077, AID1661, AID2085, AID521]; format: functional
T4 sequence (P35236 whole entry): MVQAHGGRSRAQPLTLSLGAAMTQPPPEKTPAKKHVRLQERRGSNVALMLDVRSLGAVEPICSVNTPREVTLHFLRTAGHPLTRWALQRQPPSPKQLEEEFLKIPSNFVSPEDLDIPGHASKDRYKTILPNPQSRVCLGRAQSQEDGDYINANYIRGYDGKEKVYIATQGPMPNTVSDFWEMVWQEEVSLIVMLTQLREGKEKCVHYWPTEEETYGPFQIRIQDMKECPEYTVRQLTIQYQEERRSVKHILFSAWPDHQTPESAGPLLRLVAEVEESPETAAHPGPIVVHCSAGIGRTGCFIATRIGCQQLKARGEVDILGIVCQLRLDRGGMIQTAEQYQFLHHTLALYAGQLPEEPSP

[19] = molecular target: T5, Eukaryotic translation initiation factor 2-alpha kinase 3 (Homo sapiens, UniProt Q9NZJ5); assay: Dose response cell-based high-throughput screening assay to measure PERK inhibition. [Related pubchem assays: 1416 ]; format: functional
T5 sequence (Q9NZJ5 whole entry): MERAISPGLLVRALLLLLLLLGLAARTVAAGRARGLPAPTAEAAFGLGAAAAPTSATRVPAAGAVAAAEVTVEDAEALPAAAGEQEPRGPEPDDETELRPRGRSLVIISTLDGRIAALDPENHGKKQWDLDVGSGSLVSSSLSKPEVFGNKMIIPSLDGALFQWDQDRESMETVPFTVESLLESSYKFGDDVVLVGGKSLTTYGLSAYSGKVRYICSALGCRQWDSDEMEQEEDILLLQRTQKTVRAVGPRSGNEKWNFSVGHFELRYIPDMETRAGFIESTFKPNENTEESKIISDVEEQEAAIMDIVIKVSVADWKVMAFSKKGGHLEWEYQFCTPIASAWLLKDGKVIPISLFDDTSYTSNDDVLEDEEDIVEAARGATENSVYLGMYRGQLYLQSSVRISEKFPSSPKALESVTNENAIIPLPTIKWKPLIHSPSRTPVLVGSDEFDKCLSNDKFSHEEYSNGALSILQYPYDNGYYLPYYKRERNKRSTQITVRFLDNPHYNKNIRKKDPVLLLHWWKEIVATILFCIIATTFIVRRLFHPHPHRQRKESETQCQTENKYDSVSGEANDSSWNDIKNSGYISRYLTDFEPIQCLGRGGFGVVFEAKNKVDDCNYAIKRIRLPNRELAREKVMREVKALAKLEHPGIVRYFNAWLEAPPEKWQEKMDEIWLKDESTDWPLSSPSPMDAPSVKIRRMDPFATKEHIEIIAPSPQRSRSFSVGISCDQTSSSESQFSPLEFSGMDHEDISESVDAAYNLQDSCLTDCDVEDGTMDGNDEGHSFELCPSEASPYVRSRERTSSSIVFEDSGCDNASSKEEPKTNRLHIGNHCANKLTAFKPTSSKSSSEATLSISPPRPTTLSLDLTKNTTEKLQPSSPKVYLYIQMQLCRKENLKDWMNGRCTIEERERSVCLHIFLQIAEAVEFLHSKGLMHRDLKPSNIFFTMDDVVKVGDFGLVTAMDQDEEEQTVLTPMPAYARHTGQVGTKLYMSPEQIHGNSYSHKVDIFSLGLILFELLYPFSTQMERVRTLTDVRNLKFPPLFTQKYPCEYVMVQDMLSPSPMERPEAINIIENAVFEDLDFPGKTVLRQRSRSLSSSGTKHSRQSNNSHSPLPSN

[20] = molecular target: T5, Eukaryotic translation initiation factor 2-alpha kinase 3; assay: Counterscreen assay for PERK inhibitors: Dose response cell-based high throughput screening assay to measure inhibition of PERK at 6 hours. [Related pubchem assays: 1522, 1416 ]; format: functional
[21] = molecular target: Coagulation factor XII (Homo sapiens, UniProt P00748); format: functional;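 note: activated factor XIIa alpha cleaving a fluorogenic AMC peptide substrate; inhibitor potency from loss of enzyme activity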
[22] = molecular target: Eukaryotic translation initiation factor 4E (Mus musculus, UniProt P63073); assay: eIF4E–eIF4G protein interaction inhibitors, dose response, biochemical, TR-FRET (AID 855); format: functional;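 note: potency for disrupting eIF4E binding to eIF4GI seen as loss of FRET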
Sequence of Eukaryotic translation initiation factor 4E (P63073 whole entry): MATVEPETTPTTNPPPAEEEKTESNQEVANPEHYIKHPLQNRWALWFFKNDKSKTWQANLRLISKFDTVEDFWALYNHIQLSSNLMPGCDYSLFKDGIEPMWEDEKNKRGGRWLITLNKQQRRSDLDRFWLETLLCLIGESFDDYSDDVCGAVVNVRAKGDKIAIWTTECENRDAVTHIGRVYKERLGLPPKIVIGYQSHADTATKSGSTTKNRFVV

[23] = molecular target: T6, Rac GTPase-activating protein 1 (Homo sapiens, UniProt Q9H0H5); assay: MgcRacGAP GTPase-activating activity inhibitors, confirmation, biochemical, ADP Hunter fluorescence, primary and confirmatory (AID 624330); format: functional
T6 sequence (Q9H0H5 whole entry): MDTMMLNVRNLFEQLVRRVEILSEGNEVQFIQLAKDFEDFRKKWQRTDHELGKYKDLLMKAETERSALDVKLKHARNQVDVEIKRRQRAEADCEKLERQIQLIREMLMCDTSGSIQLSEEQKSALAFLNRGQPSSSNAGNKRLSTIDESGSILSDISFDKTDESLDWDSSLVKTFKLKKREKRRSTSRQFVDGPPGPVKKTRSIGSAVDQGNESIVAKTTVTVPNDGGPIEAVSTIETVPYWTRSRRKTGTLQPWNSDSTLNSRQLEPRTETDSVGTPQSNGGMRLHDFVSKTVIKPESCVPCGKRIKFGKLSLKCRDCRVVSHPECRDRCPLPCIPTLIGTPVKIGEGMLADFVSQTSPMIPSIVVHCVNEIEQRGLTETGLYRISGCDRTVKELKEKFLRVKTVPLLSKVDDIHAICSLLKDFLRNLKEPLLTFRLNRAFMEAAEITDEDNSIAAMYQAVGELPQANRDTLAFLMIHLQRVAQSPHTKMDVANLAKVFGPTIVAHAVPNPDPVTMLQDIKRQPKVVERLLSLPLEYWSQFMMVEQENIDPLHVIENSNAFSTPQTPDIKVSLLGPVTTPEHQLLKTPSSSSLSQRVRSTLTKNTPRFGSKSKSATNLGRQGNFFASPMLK

IC50 [21]: > 50 µM (inactive)
Structure (SMILES): CC1(C)CC(=O)C=C(NNC(=O)c2ccccc2O)C1

IC50 [22]: > 64 µM (inactive) | IC50 [23]: 81 µM (active)
Structure (SMILES): O=C(C1CCN(Cc2cc(Cl)ccc2O)CC1)N1CCN(Cc2ccccc2)CC1

EC50 [19]: > 55.7 µM (not active) | EC50 [20]: > 55.7 µM (not active)
Structure (SMILES): CN(C)CC(c1ccccc1)c1ccccc1

The remaining lines, values behind:

Structure (SMILES): Cc1cc(NC(=O)c2ccc(C)s2)n(-c2nc3ccccc3[nH]2)n1
IC50 [1]: > 20 µM (inactive) | EC50 [2]: 5.48 µM (active) | IC50 [3]: > 20 µM (inactive) | EC50 [4]: > 20 µM (inactive) | IC50 [5]: > 20 µM (inactive) | IC50 [6]: > 20 µM (inactive) | IC50 [7]: > 20 µM (inactive) | IC50 [8]: > 20 µM (inactive) | EC50 [9]: 4.06 µM (active) | EC50 [10]: 3.04 µM (active) | IC50 [11]: > 20 µM (inactive) | IC50 [12]: 4.57 µM (inactive)

Structure (SMILES): COc1ccc(CC(=O)n2[nH]c(=O)ccc2=O)cc1OC
IC50 [13]: > 100 µM (active) | IC50 [14]: 46.1 µM (active) | IC50 [15]: 18.2 µM (active) | IC50 [16]: 1.53 µM (active)

Structure (SMILES): NS(=O)(=O)c1ccc(NC(=S)N2CCN(c3ccc(Cl)c(Cl)c3)CC2)cc1
IC50 [17]: > 100 µM (inactive) | IC50 [18]: > 100 µM (inactive)

Structure (SMILES): N#Cc1c(NCCO)ccc([N+](=O)[O-])c1NCCO
EC50 [19]: > 55.7 µM (not active) | EC50 [20]: > 55.7 µM (not active)

Structure (SMILES): Cc1ccc(-n2c(N)c(C(=O)N3CCCCC3)sc2=S)cc1
IC50 [17]: 76.5 µM (active) | IC50 [18]: > 100 µM (inactive)
